Assay: Solubility of Haloperidol in the hexPLA matrix
Format: physicochemical
Conditions: depends on polymer molecular weight

- Solubility of Haloperidol in hexPLA matrix: dissolvable
SMILES: O=C(CCCN1CCC(O)(c2ccc(Cl)cc2)CC1)c1ccc(F)cc1 [Haloperidol]

— patent US9549985B2, “Compositions comprising polymers prepared from 2-hydroxyalkyl acids” (UNIVERSITE DE GENEVE, priority 2010, dated 2017)
